Consider eleven compounds from patent US20240158446A1, “CYCLIC COMPOUND HAVING SELECTIVE INHIBITORY ACTION ON KRAS OVER HRAS AND NRAS” (CHUGAI SEIYAKU KABUSHIKI KAISHA, priority 2021, published 2024).

The target in test [1] is GDP-bound NRAS wild-type protein (Homo sapiens, UniProt P01111). Put plainly: Binding to NRAS by surface plasmon resonance (SPR), Single Cycle Kinetics. The settings on record: ratio of KD for GDP-bound NRAS wild-type protein to KD for KRAS, SPR.
The target in test [2] is GDP-bound KRAS wild-type protein (Homo sapiens, UniProt P01116). The experiment in a line: Binding to KRAS by surface plasmon resonance (SPR), Single Cycle Kinetics. The conditions noted are these: SPR, Single Cycle Kinetics, GDP-bound KRAS wild-type protein; read-out: KRAS KD. (In general: SPR reads the build-up and loss of mass on a sensor chip optically.)
Test [3] has as its system human lung cancer strain NCI-H441. Put plainly: cells. The conditions noted are these: NCI-H441, 96 h, read-out: NCI-H441 IC50 (nM), NCI-H441 cell proliferation, 4 days, CellTiter-Glo. On the technique in general: In ATP-based viability assays light output follows the ATP content of the culture.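 Also: cell proliferation inhibition after four days measured by CellTiter-Glo.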
Test [4] deals with GDP-bound HRAS wild-type protein (Homo sapiens, UniProt P01112). Put plainly: Binding to HRAS by surface plasmon resonance (SPR), Single Cycle Kinetics. The settings on record: ratio of KD for GDP-bound HRAS wild-type protein to KD for KRAS, SPR.

Where a SMILES comes first, the peptide text is derived from it. Bridges are numbered along the chain shown (N, C = ends). [ ]: non-standard residue; d: D form. The star is where a group is joined. hPhe(3-Cl-4-CF3) = N[C@@H](CCc1ccc(C(F)(F)F)c(Cl)c1)C(=O)O; NPrPhe(4-CF3) = CCCN[C@@H](Cc1ccc(C(F)(F)F)cc1)C(=O)O; NMeGly(cPent) = CN[C@H](C(=O)O)C1CCCC1; NMeD = CN[C@@H](CC(=O)O)C(=O)O; NMeL = CN[C@@H](CC(C)C)C(=O)O; Morpholide = C1CN(*)CCO1; NMeA = CN[C@@H](C)C(=O)O; Ac4c = NC1(C(=O)O)CCC1; Sar = CNCC(=O)O

One may read the Kd as the equilibrium constant for the complex coming apart.

Chain of GDP-bound KRAS wild-type protein (P01116 whole entry): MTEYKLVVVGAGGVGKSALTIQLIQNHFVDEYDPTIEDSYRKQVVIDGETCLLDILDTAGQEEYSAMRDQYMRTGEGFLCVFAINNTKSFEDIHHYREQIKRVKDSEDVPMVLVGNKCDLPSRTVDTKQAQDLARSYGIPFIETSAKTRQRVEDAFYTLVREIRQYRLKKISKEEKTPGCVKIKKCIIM
Chain of GDP-bound HRAS wild-type protein (P01112 whole entry): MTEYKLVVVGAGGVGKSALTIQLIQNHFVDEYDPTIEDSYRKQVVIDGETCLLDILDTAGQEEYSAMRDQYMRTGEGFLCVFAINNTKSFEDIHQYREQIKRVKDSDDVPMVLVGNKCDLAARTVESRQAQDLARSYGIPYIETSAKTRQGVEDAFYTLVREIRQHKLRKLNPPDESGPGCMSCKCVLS
Chain of GDP-bound NRAS wild-type protein (P01111 whole entry): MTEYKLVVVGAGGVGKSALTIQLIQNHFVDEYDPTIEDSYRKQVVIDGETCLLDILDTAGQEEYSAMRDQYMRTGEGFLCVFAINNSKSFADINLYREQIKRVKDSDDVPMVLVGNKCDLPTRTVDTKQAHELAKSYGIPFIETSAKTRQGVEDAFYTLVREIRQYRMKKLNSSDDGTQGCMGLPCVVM

Regarding `CCC[C@H]1C(=O)N[C@@H]([C@@H](C)CC)C(=O)N(C)CC(=O)N(C)[C@H]2C/C=C\CCN(C2=O)[C@@H](Cc2ccc(C)cc2)C(=O)N(C)CC(=O)N[C@@H](CCc2ccc(C(F)(F)F)c(Cl)c2)C(=O)N2C[C@H](OCC)C[C@H]2C(=O)NC2(CC(C)(C)C2)C(=O)N(C)[C@@H](C2CCCC2)C(=O)N(C)[C@H](C(=O)N(C)C)CC(=O)N1C` [PP1896], the “NRAS/KRAS (KD ratio)” value in test [1] was “A (a compound having 10 or more and less than 20 is denoted as A)”. The Kd in test [2] is 0.06 nM. Besides, in test [3], the IC50 was found to be 5.3 nM. In addition, in test [4], the “HRAS/KRAS (KD ratio)” value was “B (a compound having 3 or more and less than 10 is denoted as B)”.
For `CC[C@H](C)[C@@H]1NC(=O)[C@H](CC2CC2)N(C)C(=O)C[C@@H](C(=O)N(C)C)N(C)C(=O)[C@H](C2CCCC2)N(C)C(=O)C2(CC(C)(C)C2)NC(=O)[C@@H]2C[C@H](C)CN2C(=O)[C@H](CCc2ccc(C(F)(F)F)c(OC)c2)NC(=O)CN(C)C(=O)[C@H](Cc2ccc(C)cc2)N2CC/C=C\C[C@@H](C2=O)N(C)C(=O)CN(C)C1=O` [PP1898], the “NRAS/KRAS (KD ratio)” value in test [1] is “B (a compound having 3 or more and less than 10 is denoted as B)”. The equilibrium dissociation constant (Kd) in test [2] is 0.13 nM. For the same compound, the IC50 in test [3] worked out at 6.3 nM. Also, the “HRAS/KRAS (KD ratio)” value in test [4] is “B (a compound having 3 or more and less than 10 is denoted as B)”.
In the case of `CC[C@H](C)[C@@H]1NC(=O)[C@H](CC(C)C)N(C)C(=O)C[C@@H](C(=O)N(C)CC)N(C)C(=O)[C@H](C2CCCC2)N(C)C(=O)C2(CCC2)NC(=O)[C@@H]2C[C@H](C)CN2C(=O)[C@H](CCc2ccc(C(F)(F)F)c(OC)c2)NC(=O)CN(C)C(=O)[C@H](Cc2ccc(C)cc2)N2CC/C=C\C[C@@H](C2=O)N(C)C(=O)CN(C)C1=O` [PP1904], in test [1], the “NRAS/KRAS (KD ratio)” value is “A (a compound having 10 or more and less than 20 is denoted as A)”. Also, in test [2], the equilibrium dissociation constant (Kd) is 0.12 nM. Besides, the IC50 in test [3] amounted to 18.3 nM. Also, the “HRAS/KRAS (KD ratio)” value in test [4] is “B (a compound having 3 or more and less than 10 is denoted as B)”.
As for `CC[C@H](C)[C@@H]1NC(=O)[C@H](CC(C)C)N(C)C(=O)C[C@@H](C(=O)N(C)CC)N(C)C(=O)[C@H](C2CCCC2)N(C)C(=O)C2(CC(C)(C)C2)NC(=O)[C@@H]2C[C@H](C)CN2C(=O)[C@H](CCc2ccc(C(F)(F)F)c(OC)c2)NC(=O)CN(C)C(=O)[C@H](Cc2ccc(C)cc2)N2CC/C=C\C[C@@H](C2=O)N(C)C(=O)CN(C)C1=O` [PP1906], the “NRAS/KRAS (KD ratio)” value in test [1] is “A (a compound having 10 or more and less than 20 is denoted as A)”. Further, the dissociation constant (Kd) in test [2] was 0.15 nM. For the same compound, the IC50 in test [3] was 10.8 nM. In addition, in test [4], the “HRAS/KRAS (KD ratio)” value was “A (a compound having 10 or more and less than 20 is denoted as A)”.
Turning to `CC[C@H](C)[C@@H]1NC(=O)[C@H](CC(C)C)N(C)C(=O)C[C@@H](C(=O)N(C)CC)N(C)C(=O)[C@H](C2CCCC2)N(C)C(=O)C2(CCC2)NC(=O)[C@@H]2C[C@@H](C)CN2C(=O)[C@H](CCc2ccc(C(F)(F)F)c(OC)c2)NC(=O)CN(C)C(=O)[C@H](Cc2ccc(C)cc2)N2CC/C=C\C[C@@H](C2=O)N(C)C(=O)CN(C)C1=O` [PP1907], in test [1], the “NRAS/KRAS (KD ratio)” value is given as “AA (a compound having 20 or more is denoted as AA)”. Besides, the equilibrium dissociation constant (Kd) in test [2] is 0.17 nM. In addition, the IC50 in test [3] came to 23.6 nM. Further, in test [4], the “HRAS/KRAS (KD ratio)” value is “A (a compound having 10 or more and less than 20 is denoted as A)”.
On to `CC[C@H](C)[C@@H]1NC(=O)[C@H](CC(C)C)N(C)C(=O)C[C@@H](C(=O)N(C)C)N(C)C(=O)[C@H](C2CCCC2)N(C)C(=O)C2(CC(C)(C)C2)NC(=O)[C@@H]2C[C@@H](C)CN2C(=O)[C@H](CCc2ccc(C(F)(F)F)c(OC)c2)NC(=O)CN(C)C(=O)[C@H](Cc2ccc(C)cc2)N2CC/C=C\C[C@@H](C2=O)N(C)C(=O)CN(C)C1=O` [PP1908], for which the “NRAS/KRAS (KD ratio)” value in test [1] was “A (a compound having 10 or more and less than 20 is denoted as A)”. The equilibrium dissociation constant (Kd) in test [2] turned out to be 0.11 nM. Further, in test [3], the IC50 was 10.1 nM. Moreover, the “HRAS/KRAS (KD ratio)” value in test [4] was “B (a compound having 3 or more and less than 10 is denoted as B)”.
Regarding `CC[C@H](C)[C@@H]1NC(=O)[C@H](CC(C)C)N(C)C(=O)C[C@@H](C(=O)N(C)CC)N(C)C(=O)[C@H](C2CCCC2)N(C)C(=O)C2(CC(C)(C)C2)NC(=O)[C@@H]2C[C@@H](C)CN2C(=O)[C@H](CCc2ccc(C(F)(F)F)c(OC)c2)NC(=O)CN(C)C(=O)[C@H](Cc2ccc(C)cc2)N2CC/C=C\C[C@@H](C2=O)N(C)C(=O)CN(C)C1=O` [PP1909], the “NRAS/KRAS (KD ratio)” value in test [1] was “A (a compound having 10 or more and less than 20 is denoted as A)”. For the same compound, in test [2], the equilibrium dissociation constant (Kd) amounted to 0.34 nM. Besides, the IC50 in test [3] turned out to be 15.3 nM. Further, the “HRAS/KRAS (KD ratio)” value in test [4] is “B (a compound having 3 or more and less than 10 is denoted as B)”.
In the case of `CC[C@H](C)[C@@H]1NC(=O)[C@H](CC(F)F)N(C)C(=O)C[C@@H](C(=O)N(C)CC)N(C)C(=O)[C@H](C2CCCC2)N(C)C(=O)C2(CC(C)(C)C2)NC(=O)[C@@H]2C[C@H](C)CN2C(=O)[C@H](CCc2ccc(C(F)(F)F)c(Cl)c2)NC(=O)CN(C)C(=O)[C@H](Cc2ccc(C)cc2)N2CC/C=C\C[C@@H](C2=O)N(C)C(=O)CN(C)C1=O` [PP1911], the “NRAS/KRAS (KD ratio)” value in test [1] was “A (a compound having 10 or more and less than 20 is denoted as A)”. Besides, the dissociation constant (Kd) in test [2] turned out to be 0.21 nM. In addition, the IC50 in test [3] was 11.7 nM. Also, in test [4], the “HRAS/KRAS (KD ratio)” value is “A (a compound having 10 or more and less than 20 is denoted as A)”.
For the compound `CCO[C@@H]1C[C@H]2C(=O)NC3(CC(C)(C)C3)C(=O)N(CC)[C@@H](C3CCCC3)C(=O)N(C)[C@H](C(=O)N(C)C)CC(=O)N(C)[C@@H](CC)C(=O)N[C@@H]([C@@H](C)CC)C(=O)N(C)CC(=O)N(C)[C@H]3C/C=C\CCN(C3=O)[C@@H](Cc3ccc(C(F)(F)F)cc3)C(=O)N(C)CC(=O)N[C@@H](CCc3cc(F)c(C(F)(F)F)c(F)c3)C(=O)N2C1` [PP1913], in test [1], the “NRAS/KRAS (KD ratio)” value was “A (a compound having 10 or more and less than 20 is denoted as A)”. For the same compound, the dissociation constant Kd in test [2] stood at 0.37 nM. Further, the IC50 in test [3] is 44 nM. In test [4], the “HRAS/KRAS (KD ratio)” value is “A (a compound having 10 or more and less than 20 is denoted as A)”.
In the case of `CCO[C@@H]1C[C@H]2C(=O)NC3(CC(C)(C)C3)C(=O)N(C)[C@@H](C3CCCC3)C(=O)N(C)[C@H](C(=O)N(C)C)CC(=O)N3CCCCC[C@H]3C(=O)N[C@@H]([C@@H](C)CC)C(=O)N(C)CC(=O)N(C)[C@H]3C/C=C\CCN(C3=O)[C@@H](Cc3ccc(C(F)(F)F)cc3)C(=O)N(C)CC(=O)N[C@@H](CCc3cc(F)c(C(F)(F)F)c(F)c3)C(=O)N2C1` [PP1915], in test [1], the “NRAS/KRAS (KD ratio)” value is “A (a compound having 10 or more and less than 20 is denoted as A)”. In addition, in test [2], the equilibrium dissociation constant (Kd) is 0.31 nM. The IC50 in test [3] came out at 18.5 nM. Further, the “HRAS/KRAS (KD ratio)” value in test [4] is “A (a compound having 10 or more and less than 20 is denoted as A)”.
Take `CCCN1C(=O)CN(C)C(=O)CN(C)C(=O)[C@H]([C@@H](C)CC)NC(=O)[C@H](CC(C)C)N(C)C(=O)C[C@@H](C(=O)N2CCOCC2)N(C)C(=O)[C@H](C2CCCC2)N(C)C(=O)C2(CCC2)NC(=O)[C@H](C)N(C)C(=O)[C@H](CCc2ccc(C(F)(F)F)c(Cl)c2)NC(=O)CN(C)C(=O)[C@@H]1Cc1ccc(C(F)(F)F)cc1` [PP1916] ([NMeL]I[Sar][Sar][NPrPhe(4-CF3)][Sar][hPhe(3-Cl-4-CF3)][NMeA][Ac4c][NMeGly(cPent)][NMeD]-Morpholide; lactam N-11): the “NRAS/KRAS (KD ratio)” value in test [1] was “B (a compound having 3 or more and less than 10 is denoted as B)”. The Kd in test [2] was found to be 0.49 nM. Also, in test [3], the IC50 was 16.8 nM. For the same compound, the “HRAS/KRAS (KD ratio)” value in test [4] was “C (A compound having a KD ratio of 0.1 or more and less than 3 is denoted as C)”.
